Reference: patent US11026965B2, “Nitric oxide-releasing cyclodextrins as biodegradable antibacterial scaffolds and methods pertaining thereto” (The University of North Carolina at Chapel Hill, priority 2018, dated 2021)
Converted amounts (≈) assume the structure as drawn. Like-named read-outs stand apart in the source and are kept apart here.

Tests used:
[1] = NO-release properties of NO-releasing cyclodextrins at pH 5.4 and pH 7.4 (Table 5); format: physicochemical
Experimental: Additional studies were carried out to investigate NO-release properties from β-cyclodextrin under conditions consistent with healthy tissue (pH 7.4) and those of tumor microenvironments (pH 5.4). These studies also evaluated the role of NO-release properties on anticancer action using A549 lung cancer cells with two modifications to vary release kinetics (mono- and hepta-substitution to vary NO totals). This study also evaluated the efficacy of a combined therapeutic (a nitric oxide releasing CD with DOX) as compared to each therapeutic agent individually. […] Several different functionalized CDs were prepared as shown in Table 5 and using techniques as described elsewhere herein. […] All modifications (PA, DETA, and DETA7) except for PA7 have t1/2 under 10 min.

[2] = system: A549 human lung carcinoma cells; assay: Anticancer action against A549 cells, 24 h MTS assay; format: cell-based; conditions: A549, 24 h MTS; error = 95% confidence interval for IC50
Experimental: Anticancer potential was evaluated against A549 human lung carcinoma cells using an MTS assay. […] All cell work performed in RPMI media and materials corrected for pH using 0.1 M HCl. […]

[3] = system: L929 mouse fibroblasts; assay: In-vitro cytotoxicity, L929 mouse fibroblasts, MTS, 4 h exposure; format: cell-based
Experimental: L929 mouse fibroblasts were cultured in DMEM supplemented with 10% v/v fetal bovine serum (FBS) and 1 wt % penicillin/streptomycin, and incubated in 5% v/v CO2 under humidified conditions at 37° C. After reaching confluency (80%), the cells were trypsinized, seeded onto tissue-culture treated polystyrene 96-well plates at a density of 1×10^4 cells/mL, and incubated at 37° C. for 24 hours. The supernatant was then aspirated and replaced with 100 μL of fresh growth medium containing various concentrations of both unmodified control and NO-releasing CD derivatives to each well. After incubation at 37° C. for 4 hours, the supernatant was aspirated and 100 μL of a mixture of DMEM/MTS/PMS (105/20/1, v/v/v) was added to each well. The absorbance of the resulting colored solutions over 3 hours incubation was quantified by using a ThermoScientific Multiskan EX plate reader (Waltham, Mass.) at 490 nm. The mixture of DMEM/MTS/PMS and untreated cells were used as a blank and control, respectively. Cell viability was calculated according to the following formula: […]
Despite effective bactericidal capability, the applicability of new antibacterial agents is also determined by their toxicity to mammalian cells. With respect to therapeutic potential, toxicity to mammalian cells is an important factor in the development of any new antibacterial agent. The cytotoxicity of CD-NONOates was evaluated by exposing mouse fibroblast cells to various concentrations (0˜2000 μg/mL) of both control and NO-releasing CD derivatives over a 4 hour exposure. […] Both CD-PA7/NO and CD-MA7/NO were tolerable to the mouse fibroblasts even at 2000 μg/mL (63% and 73% cell viability for CD-PA7/NO and CD-MA7/NO, respectively). […] The behavior is in part related to the effective delivery of NO induced by the fast cellular uptake of positively charged macromolecular systems. This behavior was also ascribed to the large amounts of terminal primary amines groups.

[4] = system: planktonic P. aeruginosa; assay: Bactericidal assay against planktonic P. aeruginosa (4 h, static, MBC4h = 3-log reduction); format: cell-based, Pseudomonas aeruginosa; conditions: for MBC: Pseudomonas aeruginosa
Experimental: Nitric oxide may be an efficient antibacterial agent. The antibacterial activity of the NO-releasing CD derivatives was evaluated against Gram-negative P. aeruginosa, a model pathogen associated with serious medical infections (e.g., traumatic burns, cystic fibrosis). Pseudomonas aeruginosa is a Gram-negative pathogen. Bacterial viability assays were performed under static conditions. Minimum bactericidal concentrations over 4 hours exposure (MBC4h) were used to quantify their bactericidal activity, being required to eliminate bacteria viability by 3 logs (e.g., 99.9% killing). The total NO amount delivered by NO-releasing CD derivatives over this period was also calculated to quantitatively evaluate the required NO dose to achieve bactericidal activity.
The TSA bacterial stock of P. aeruginosa colony was cultured in 3 mL of TSB overnight (around 16 hours) at 37° C. A 1000 μL aliquot of the resulting suspension was added into 15 mL of fresh TSB and incubated at 37° C. for another 2 hours, to achieve a concentration of 10^8 colony forming units per mL (CFU/mL, confirmed by the OD600). The bacteria was collected by centrifugation, resuspended in sterile PBS, and diluted to 10^6 CFU/mL. The antibacterial efficacy of both non-NO-releasing and NO-releasing CD derivatives against P. aeruginosa was evaluated under static condition over 4 hours at 37° C. Blanks (untreated cells) were incubated in each experiment to ensure the bacteria remained viable at 10^6 CFU/mL over 4 hour assay. 100 μL aliquots of blank, control or NO-releasing CD derivatives treated bacteria suspensions were shifted, diluted 10-fold in sterile H2O and plated on TSA plates using an Eddy Jet spiral plater (IUL; Farmingdale, N.Y.), followed by incubation overnight at 37° C. Bacterial viability was evaluated via total colony count on the TSA plates by using a Flash & Go colony counter (IUL; Farmingdale, N.Y.). […] Of note, the limit of detection for this selected plate counting method is 2.5×10^3 CFU/mL.
Additional testing was done to determine the antibacterial efficacy and toxicity of DETA, DETA/NO (DETA functionalized with NO), and DETA/NO mixed with CD (at ratios of 1:1 or 1:2) as compared to CD-DETA or CD-DETA/NO (CD-DETA functionalized with NO). The same conditions as disclosed above for antibacterial testing and cytotoxicity was used.

[5] = 4 h exposure, 3-log reduction in viability

SMILES	[NO]max ([1]; pH 5.4) [ppb mg^−1]	[NO]t ([1]; pH 5.4) [µmol/mg]	td ([1]; pH 5.4) [h]	[NO]max ([1]; pH 7.4) [ppb mg^−1]	[NO]t ([1]; pH 7.4) [µmol/mg]	td ([1]; pH 7.4) [h]	NO dose [2] [µmol/mL]	MBC4 h [4, 5] [µg/mL]	further results
NCCNCCNCC1OC2OC3C(CO)OC(OC4C(CO)OC(OC5C(CO)OC(OC6C(CO)OC(OC7C(CO)OC(OC8C(CO)OC(OC1C(O)C2O)C(O)C8O)C(O)C7O)C(O)C6O)C(O)C5O)C(O)C4O)C(O)C3O (stereo not drawn) [CD-DETA]	32000 ± 2500	0.74 ± 0.04	14.6 ± 0.8	900 ± 100	0.68 ± 0.03	20.2 ± 0.6	1.07 ± 0.06	8000	L929 viability ([3]; up to 2 mg/mL): > 60%; MBC4 h ([4]; 4 h exposure): 8000 µg/mL
NCCN(CCN)/[N+]([O-])=N/O [DETA/NO]	–	–	–	–	–	–	–	1000	–
CCCNCC1OC2OC3C(CO)OC(OC4C(CO)OC(OC5C(CO)OC(OC6C(CO)OC(OC7C(CO)OC(OC8C(CO)OC(OC1C(O)C2O)C(O)C8O)C(O)C7O)C(O)C6O)C(O)C5O)C(O)C4O)C(O)C3O (stereo not drawn) [CD-PA]	25100 ± 5700	0.56 ± 0.09	5.0 ± 0.8	2100 ± 300	0.60 ± 0.07	17.0 ± 1.0	0.97 ± 0.16	–	–
CC(CN1c2ccccc2Sc2ccccc21)N(C)C (stereo not drawn) [PM, promethazine]	–	–	–	–	–	–	–	–	cytotoxicity at MBC4h concentration (in words) [3]: toxic to the vast majority of the mouse fibroblast cells; MBC ([4]; concentration of PM, PM and CD derivative 1:1 molar, read-out: PM MBC4 h): 100 µg/mL (≈ 352 µM); MBC4h for PM ([4]; concentration of PM): 100 µg/mL
NCCNCCN [DETA, diethylenetriamine]	–	–	–	–	–	–	–	–	concentration at which toxic ([3]; FIG. 21e): 4000 µg/mL; bactericidal efficacy (in words) ([4]; 4 h incubation): highly antimicrobial; MBC ([4]; 4 h exposure, 3-log reduction in viability, read-out: MBC4 h): 250 µg/mL (≈ 2420 µM)
